As a reminder, the IC50 is the midpoint of a concentration-inhibition curve.

For the experiment, the target named is human NaV 1.8 (Homo sapiens, UniProt Q9Y5Y9). The experiment in a line: E-VIPR assay for detecting and measuring NaV inhibition properties. Format: cell-based. To be noted: E-VIPR assay conducted in the presence of human serum; HEK cells expressing truncated human NaV 1.8; read-out: IC50. The source says: Sodium ion channels are voltage-dependent proteins that can be activated by inducing membrane voltage changes by applying electric fields. The electrical stimulation instrument and methods of use, referred to as E-VIPR, are described in International Publication No. WO 2002/008748 A3 and C.-J. Huang et al. Characterization of voltage-gated sodium channel blockers by electrical stimulation and fluorescence detection of membrane potential, 24 Nature Biotech. 439-46 (2006), both of which are incorporated by reference in their entirety. The instrument comprises a microtiter plate handler, an optical system for exciting the coumarin dye while simultaneously recording the coumarin and oxonol emissions, a waveform generator, a current- or voltage-controlled amplifier, and parallel electrode pairs that are inserted into assay plate wells. Under integrated computer control, this instrument passes user-programmed electrical stimulus protocols to cells within the wells of the microtiter plate.
human NaV 1.8, sequence (Q9Y5Y9 whole entry, looked up, the tested form may be a part): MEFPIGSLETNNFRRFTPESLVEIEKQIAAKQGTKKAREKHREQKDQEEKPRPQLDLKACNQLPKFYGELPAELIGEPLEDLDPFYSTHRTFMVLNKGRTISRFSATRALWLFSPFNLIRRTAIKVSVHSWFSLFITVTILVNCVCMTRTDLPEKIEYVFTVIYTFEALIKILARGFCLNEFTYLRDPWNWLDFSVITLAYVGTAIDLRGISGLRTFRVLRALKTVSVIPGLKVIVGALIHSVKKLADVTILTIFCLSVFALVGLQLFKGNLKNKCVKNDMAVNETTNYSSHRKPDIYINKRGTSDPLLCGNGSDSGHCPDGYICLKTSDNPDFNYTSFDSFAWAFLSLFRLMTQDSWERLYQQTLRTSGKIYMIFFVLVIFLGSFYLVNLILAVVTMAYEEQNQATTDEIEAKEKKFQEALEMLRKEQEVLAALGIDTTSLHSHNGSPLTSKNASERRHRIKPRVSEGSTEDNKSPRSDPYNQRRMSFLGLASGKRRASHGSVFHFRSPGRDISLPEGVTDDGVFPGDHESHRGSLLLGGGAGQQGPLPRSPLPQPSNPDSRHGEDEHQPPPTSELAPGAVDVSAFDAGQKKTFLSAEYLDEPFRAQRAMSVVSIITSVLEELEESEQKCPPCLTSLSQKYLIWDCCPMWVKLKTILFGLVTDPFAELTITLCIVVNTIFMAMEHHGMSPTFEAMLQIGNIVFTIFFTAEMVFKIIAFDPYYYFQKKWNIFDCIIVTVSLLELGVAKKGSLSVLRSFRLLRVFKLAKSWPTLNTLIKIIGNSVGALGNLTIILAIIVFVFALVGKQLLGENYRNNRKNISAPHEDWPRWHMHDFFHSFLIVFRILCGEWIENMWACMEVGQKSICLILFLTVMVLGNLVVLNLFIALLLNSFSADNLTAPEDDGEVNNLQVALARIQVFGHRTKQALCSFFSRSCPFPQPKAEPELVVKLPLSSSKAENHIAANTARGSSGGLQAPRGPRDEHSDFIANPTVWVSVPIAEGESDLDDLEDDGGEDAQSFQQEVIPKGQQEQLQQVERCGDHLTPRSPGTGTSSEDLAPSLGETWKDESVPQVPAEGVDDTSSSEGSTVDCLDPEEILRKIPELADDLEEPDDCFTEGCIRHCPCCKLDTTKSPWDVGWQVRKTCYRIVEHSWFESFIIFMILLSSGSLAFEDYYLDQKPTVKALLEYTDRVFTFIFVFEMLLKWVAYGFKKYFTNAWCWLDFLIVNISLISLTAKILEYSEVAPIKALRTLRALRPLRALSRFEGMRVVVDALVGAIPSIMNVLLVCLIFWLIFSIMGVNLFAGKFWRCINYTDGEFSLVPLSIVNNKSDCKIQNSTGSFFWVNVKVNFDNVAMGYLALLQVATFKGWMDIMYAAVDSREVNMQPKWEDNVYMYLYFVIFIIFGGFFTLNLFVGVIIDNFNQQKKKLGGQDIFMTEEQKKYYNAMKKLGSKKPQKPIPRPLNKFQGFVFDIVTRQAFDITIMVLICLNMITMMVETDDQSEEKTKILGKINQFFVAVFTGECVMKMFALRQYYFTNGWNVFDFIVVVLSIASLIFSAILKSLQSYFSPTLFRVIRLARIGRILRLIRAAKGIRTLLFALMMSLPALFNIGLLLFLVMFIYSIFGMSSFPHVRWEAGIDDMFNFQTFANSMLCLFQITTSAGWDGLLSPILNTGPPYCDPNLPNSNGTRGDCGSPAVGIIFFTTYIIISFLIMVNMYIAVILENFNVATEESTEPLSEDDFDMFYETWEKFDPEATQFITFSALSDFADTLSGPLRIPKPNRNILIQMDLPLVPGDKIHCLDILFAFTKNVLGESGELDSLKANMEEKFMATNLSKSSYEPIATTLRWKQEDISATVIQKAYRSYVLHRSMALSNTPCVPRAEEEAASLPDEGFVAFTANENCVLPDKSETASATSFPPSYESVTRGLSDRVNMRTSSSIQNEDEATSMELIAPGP
16-20 hours prior to running the assay on E-VIPR, HEK cells expressing a truncated form of human NaV 1.8 with full channel activity were seeded into microtiter 384-well plates, pre-coated with matrigel, at a density of 25,000 cells per well. 2.5-5% KIR2.1 Bacmam virus was added to the final cell suspension before seeding into cell plates. HEK cells were grown in Dulbecco's Modified Eagle's Medium (DMEM) supplemented with 10% FBS (Fetal Bovine Serum, qualified; Sigma #F4135), 1% NEAA (Non-Essential Amino Acids, Gibco #11140), 1% HEPES (Gibco #15630), 1% Pen-Strep (Penicillin-Streptomycin; Gibco #15140) and 5 μg/ml Blasticidin (Gibco #R210-01). Cells were expanded in vented cap cell culture flasks, with 90-95% humidity and 5% CO2.
Compound Loading Buffer (2× concentration): Na/TMA Cl Bath1 Buffer containing HS (omitted in experiments run in the absence of human serum (HS)) 50%, VABSC-1 1 mM, BSA 0.2 mg/ml (in Bath-1), KCl 9 mM, DMSO 0.75%.
• 1) To reach the final concentration in each well, 400 nL of each compound was pre-spotted (in neat DMSO) into polypropylene compound plates at 250× desired final concentration from an intermediate stock concentration of 0.075 mM, in an 11 point dose response, 3-fold dilution, resulting in a top dose of 300 nM final concentration in the cell plate. Vehicle control (neat DMSO), and positive control (an established NaV1.8 inhibitor, 25 μM final in assay in DMSO) were added manually to the outermost columns of each plate respectively. The compound plate was backfilled with 45 μL per well of Compound Loading Buffer resulting in a 250 fold dilution of compound following a 1:1 transfer of compound into the cell plate (see Step 6). Final DMSO concentration for all wells in the assay was 0.625% (0.75% DMSO was supplemented to the Compound Loading Buffer for a final DMSO concentration of 0.625%). This assay dilution protocol was adjusted to enable a higher dose range to be tested in the presence of HS or if the final assay volume was altered. • 2) Hexyl Dye Solution was prepared. • 3) Cell plates were prepared. On the day of the assay, the media was aspirated, and the cells were washed three times with 80 μL of Bath-1 buffer, maintaining 25 μL residual volume in each well. • 4) 25 μL per well of Hexyl Dye Solution was dispensed into the cell plates. The cells were incubated for 20 minutes at room temperature or ambient conditions in darkness. • 5) 45 μL per well of Compound Loading Buffer was dispensed into compound plates. • 6) The cell plates were washed three times with 80 μL per well of Bath-1 Buffer, leaving 25 µL of residual volume. Then 25 μL per well from compound plate was transferred to each cell plate. The mixture was incubated for 30 minutes at room temperature/ambient conditions. • 7) The cell plate containing compound was read on E-VIPR using the current-controlled amplifier to deliver stimulation wave pulses using a symmetrical biphasic waveform. […]
Take “4-[[2-(4-fluoro-2-methoxy-phenyl)-4-(trifluoromethyl)benzoyl]amino]pyridine-2-carboxamide [Compound 175]”: the IC50 was above 3000 nM. The figure for `COc1cc(OC(F)(F)F)ccc1Oc1cc(C2CCC(C(F)(F)F)CC2)ccc1C(=O)Nc1ccnc(C(N)=O)c1` (single isomer, unassigned) [158 (first diastereomer), 4-[[2-[2-methoxy-4-(trifluoromethoxy)phenoxy]-4-[4-(trifluoromethyl)cyclohexyl]benzoyl]amino]pyridine-2-carboxamide] is 960 nM.

For `COc1cc(OC(F)(F)F)ccc1Oc1cc(C2CCC(C(F)(F)F)CC2)ccc1C(=O)Nc1ccnc(C(N)=O)c1` (single isomer, unassigned) [158 (second diastereomer), 4-[[2-[2-methoxy-4-(trifluoromethoxy)phenoxy]-4-[4-(trifluoromethyl)cyclohexyl]benzoyl]amino]pyridine-2-carboxamide], the IC50 was 395 nM. Turning to `COc1cc(OC(F)(F)F)ccc1Oc1cc(C2CCC(C(F)(F)F)CC2)cc(F)c1C(=O)Nc1ccnc(C(N)=O)c1` (single isomer, unassigned) [168 (first diastereomer), 4-[[2-fluoro-6-[2-methoxy-4-(trifluoromethoxy)phenoxy]-4-[4-(trifluoromethyl)cyclohexyl]benzoyl]amino]pyridine-2-carboxamide], the IC50 turned out to be 18 nM. Then `COc1cc(OC(F)(F)F)ccc1Oc1cc(C2CCC(C(F)(F)F)CC2)cc(F)c1C(=O)Nc1ccnc(C(N)=O)c1` (single isomer, unassigned) [168 (second diastereomer), 4-[[2-fluoro-6-[2-methoxy-4-(trifluoromethoxy)phenoxy]-4-[4-(trifluoromethyl)cyclohexyl]benzoyl]amino]pyridine-2-carboxamide], with 10 nM.

As to `COc1cc(OC(F)(F)F)ccc1Oc1cc(C2CCC(C(C)(C)C)CC2)cc(F)c1C(=O)Nc1ccnc(C(N)=O)c1` (single isomer, unassigned) [169 (first diastereomer), 4-[[4-(4-tert-butylcyclohexyl)-2-fluoro-6-[2-methoxy-4-(trifluoromethoxy)phenoxy]benzoyl]amino]pyridine-2-carboxamide], the IC50 came to 11 nM.

Take `COc1cc(OC(F)(F)F)ccc1Oc1cc(C2CCC(C(C)(C)C)CC2)cc(F)c1C(=O)Nc1ccnc(C(N)=O)c1` (single isomer, unassigned) [169 (second diastereomer), 4-[[4-(4-tert-butylcyclohexyl)-2-fluoro-6-[2-methoxy-4-(trifluoromethoxy)phenoxy]benzoyl]amino]pyridine-2-carboxamide]: the half-inhibitory concentration (IC50) was 21 nM. Then `[2H]C([2H])([2H])Oc1cc(OC(F)(F)F)ccc1Oc1cc(C2CCC(OC)CC2)cc(F)c1C(=O)Nc1ccnc(C(N)=O)c1` (single isomer, unassigned) [1017 (first diastereomer), 4-[[2-fluoro-4-(4-methoxycyclohexyl)-6-[2-(trideuteriomethoxy)-4-(trifluoromethoxy)phenoxy]benzoyl]amino]pyridine-2-carboxamide], with 252 nM; and `[2H]C([2H])([2H])Oc1cc(OC(F)(F)F)ccc1Oc1cc(C2CCC(OC)CC2)cc(F)c1C(=O)Nc1ccnc(C(N)=O)c1` (single isomer, unassigned) [1017 (second diastereomer), 4-[[2-fluoro-4-(4-methoxycyclohexyl)-6-[2-(trideuteriomethoxy)-4-(trifluoromethoxy)phenoxy]benzoyl]amino]pyridine-2-carboxamide], with 17 nM.

For the compound `COc1cc(OC(F)(F)F)ccc1Oc1cc(C2CCC(OC)CC2)ccc1C(=O)Nc1ccnc(C(N)=O)c1` (single isomer, unassigned) [1032 (first diastereomer), 4-[[4-(4-methoxycyclohexyl)-2-[2-methoxy-4-(trifluoromethoxy)phenoxy]benzoyl]amino]pyridine-2-carboxamide], the half-maximal inhibitory concentration (IC50) amounted to 524 nM. Then `COc1cc(OC(F)(F)F)ccc1Oc1cc(C2CCC(OC)CC2)ccc1C(=O)Nc1ccnc(C(N)=O)c1` (single isomer, unassigned) [1032 (second diastereomer), 4-[[4-(4-methoxycyclohexyl)-2-[2-methoxy-4-(trifluoromethoxy)phenoxy]benzoyl]amino]pyridine-2-carboxamide], with 1550 nM; and `COc1nc(Cl)ccc1Oc1ccc(C(F)(F)F)cc1C(=O)Nc1ccnc(C(N)=O)c1` [Compound 1, 4-[[2-[(6-Chloro-2-Methoxy-3-Pyridyl)Oxy]-5-(Trifluoromethyl)Benzoyl]Amino]Pyridine-2-Carboxamide], with 390 nM. The figure for `CC(C)Oc1ccc(Oc2ccc(C(F)(F)F)cc2C(=O)Nc2ccnc(C(N)=O)c2)cc1Cl` [Compound 2, 4-[[2-(3-chloro-4-isopropoxy-phenoxy)-5-(trifluoromethyl)benzoyl]amino]pyridine-2-carboxamide] is 450 nM; for `Cc1cc(Oc2ccc(C(F)(F)F)cc2C(=O)Nc2ccnc(C(N)=O)c2)ccc1F` [Compound 3, 4-[[2-(4-fluoro-3-methyl-phenoxy)-5-(trifluoromethyl)benzoyl]amino]pyridine-2-carboxamide] it is 1400 nM; for `Cc1cc(F)ccc1Oc1ccc(C(F)(F)F)cc1C(=O)Nc1ccnc(C(N)=O)c1` [Compound 4, 4-[[2-(4-fluoro-2-methyl-phenoxy)-5-(trifluoromethyl)benzoyl]amino]pyridine-2-carboxamide] it is 650 nM. In the case of `NC(=O)c1cc(NC(=O)c2cc(C(F)(F)F)ccc2Oc2ccc(F)cc2Cl)ccn1` [Compound 5, 4-[[2-(2-chloro-4-fluoro-phenoxy)-5-(trifluoromethyl)benzoyl]amino]pyridine-2-carboxamide], the IC50 turned out to be 1200 nM. Then `NC(=O)c1cc(NC(=O)c2cc(C(F)(F)F)ccc2Oc2ccc(F)c(F)c2)ccn1` [Compound 6, 4-[[2-(3,4-difluorophenoxy)-5-(trifluoromethyl)benzoyl]amino]pyridine-2-carboxamide], with 1700 nM. Then `CC(C)Oc1ccc(Oc2ccc(C(F)(F)F)cc2C(=O)Nc2ccnc(C(N)=O)c2)cc1F` [Compound 7, 4-[[2-(3-fluoro-4-isopropoxy-phenoxy)-5-(trifluoromethyl)benzoyl]amino]pyridine-2-carboxamide], with 660 nM; and `COc1cc(F)ccc1Oc1ccc(C(F)(F)F)cc1C(=O)Nc1ccnc(C(N)=O)c1` [Compound 8, 4-[[2-(4-fluoro-2-methoxy-phenoxy)-5-(trifluoromethyl)benzoyl]amino]pyridine-2-carboxamide], with 510 nM; and `CC(C)Oc1ccc(Oc2ccc(C(F)(F)F)cc2C(=O)Nc2ccnc(C(N)=O)c2)cc1` [Compound 9, 4-[[2-(4-isopropoxyphenoxy)-5-(trifluoromethyl)benzoyl]amino]pyridine-2-carboxamide], with 1300 nM. Then `NC(=O)c1cc(NC(=O)c2cc(C(F)(F)F)ccc2Oc2ccc(F)c3c2OCC3)ccn1` [Compound 10, 4-[[2-[(4-fluoro-2,3-dihydrobenzofuran-7-yl)oxy]-5-(trifluoromethyl)benzoyl]amino]pyridine-2-carboxamide], with 650 nM; and `NC(=O)c1cc(NC(=O)c2cc(C(F)(F)F)ccc2Oc2ccc(F)c(Cl)c2)ccn1` [Compound 11, 4-[[2-(3-chloro-4-fluoro-phenoxy)-5-(trifluoromethyl)benzoyl]amino]pyridine-2-carboxamide], with 1400 nM.

The record behind these values is patent US12441703B2, “Carboxamides as modulators of sodium channels” (VERTEX PHARMACEUTICALS INCORPORATED, priority 2019, dated 2025).
